Columns and labels:
[1] = molecular target: T1, human BRD4 bromodomain II (Homo sapiens, UniProt O60885); experiment: Bromodomain binding assay (AlphaScreen), BRD4 BDII; details: AlphaScreen assay, Table C2; read-out: BRD4 BDII IC50
T1 construct: human BRD4 bromodomain II [based on Genbank NM_058243, residues 349-460]; host or cells: E. coli
Method in brief: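 Compounds (10-point, 3-fold series) were preincubated 30 min at room temperature with E. coli-expressed N-terminal His6-tagged BRD4 BDII (residues 349-460) or BDI (residues 44-170) in 50 mM HEPES pH 7.5, 100 mM NaCl, 0.05% CHAPS, 0.1% BSA, 1% DMSO. Displacement of biotinylated tetra-acetylated H4 1-21 peptide was read by AlphaScreen; IC50 from curve fitting.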

[2] = tested on: human SKM-1 acute myeloid leukemia cells; experiment: SKM-1 antiproliferation cell-based assay (ATPlite); details: Homo sapiens, SKM-1, 96 h, SKM-1 antiproliferation assay, 4 days, Table C2
Procedure: The cell-based assay indirectly measures cell density (and therefore proliferation and/or survival) by detecting total ATP concentration in a homogeneous format. Briefly, human SKM-1 acute myeloid leukemia cells (Leibniz Institute DSMZ #ACC 547) proliferating in log phase are collected by centrifugation, re-suspended in culture media (RPMI 1640/15% FBS/100 U/mL penicillin/100 μg/mL streptomycin) and diluted to 34722 cells/mL in media after counting. Then 180 μL cells are plated per well into a 96-well tissue-culture treated, clear bottom plate (Coming #3603). A 96-well compound plate (Corning #3357) is then generated by serial dilution of compounds into DMSO over nine concentrations and adding separate negative (DMSO) and positive control (reference compound) wells. Each compound concentration is tested in triplicate. First, 1 μL from each well of the compound plate is added to 99 μL culture media in an intermediate plate and mixed by pipetting. Then 20 μL of the diluted compounds in media are added to the assay plate containing the cells. The assay plate is maintained for 4 days in a standard cell culture incubator. At the end of the incubation period, 100 μL ATPlite Istep (PerkinElmer) is added to the assay plate wells, and the resulting luminescence is detected using an Infinite M1000 or a Spark multimode plate reader (Tecan). Data analysis is performed in Prism (GraphPad Software). For curve fitting, a non-linear regression, variable slope equation is used to calculate cellular IC50s.

| IC50 [1] | GI50 [2] | SMILES |
| --- | --- | --- |
| 0.001 to 0.01 µM | 0.03 to 0.3 µM | O=C1CCCN1c1ccc(-c2cccc(-c3ccnc(N4CCNCC4)c3)c2O)cc1F [Example 238, 1-(3-fluoro-2′-hydroxy-3′-(2-(piperazin-1-yl)pyridin-4-yl)-[1,1′-biphenyl]-4-yl)pyrrolidin-2-one] |
| 0.001 to 0.01 µM | 0.3 to 3 µM | CC(=O)Nc1ccc(-c2cccc(-c3ccnc(N4CC[C@H](O)C4)c3)c2O)cc1F [Example 239, (S)-N-(3-fluoro-2′-hydroxy-3′-(2-(3-hydroxypyrrolidin-1-yl)pyridin-4-yl)-[1,1′-biphenyl]-4-yl)acetamide] |
| 0.001 to 0.01 µM | 0.03 to 0.3 µM | CN1CCN(c2ccc(-c3cccc(-c4ccnc(N5CCNCC5)c4)c3O)cc2F)C1=O [Example 240, 1-(3-fluoro-2′-hydroxy-3′-(2-(piperazin-1-yl)pyridin-4-yl)-[1,1′-biphenyl]-4-yl)-3-methylimidazolidin-2-one] |
| 0.001 to 0.01 µM | 0.03 to 0.3 µM | CC(=O)Nc1ccc(-c2cccc(-c3cc(C)nc(N4CCNCC4)c3)c2O)cc1F [Example 244, N-(3-fluoro-2′-hydroxy-3′-(2-methyl-6-(piperazin-1-yl)pyridin-4-yl)-[1,1′-biphenyl]-4-yl)acetamide] |
| 0.001 to 0.01 µM | 0.03 to 0.3 µM | CC(=O)Nc1ccc(-c2cccc(-c3ccnc(N4CC[C@H](N)C4)c3)c2O)cc1F [Example 248, (S)-N-(3′-(2-(3-aminopyrrolidin-1-yl)pyridin-4-yl)-3-fluoro-2′-hydroxy-[1,1′-biphenyl]-4-yl)acetamide] |
| 0.001 to 0.01 µM | 0.03 to 0.3 µM | O=C1CCCN1c1ccc(-c2cccc(-c3cncc(N4CCNCC4)c3)c2O)cc1F [Example 249, 1-(3-fluoro-2′-hydroxy-3′-(5-(piperazin-1-yl)pyridin-3-yl)-[1,1′-biphenyl]-4-yl)pyrrolidin-2-one] |
| 0.01 to 0.1 µM | 0.03 to 0.3 µM | CC(=O)Nc1ccc(-c2cccc(-c3ccnc(N4CC[C@@H](O)C4)c3)c2O)cc1F [Example 251, (R)-N-(3-fluoro-2′-hydroxy-3′-(2-(3-hydroxypyrrolidin-1-yl)pyridin-4-yl)-[1,1′-biphenyl]-4-yl)acetamide] |
| 0.001 to 0.01 µM | 0.3 to 3 µM | C[C@@H]1CN(c2cc(-c3cccc(-c4ccc(N5CCCC5=O)c(F)c4)c3O)ccn2)CCN1 [Example 252, (R)-1-(3-fluoro-2′-hydroxy-3′-(2-(3-methylpiperazin-1-yl)pyridin-4-yl)-[1,1′-biphenyl]-4-yl)pyrrolidin-2-one] |
| 0.001 to 0.01 µM | 0.3 to 3 µM | C[C@@H]1CN(c2cc(-c3cccc(-c4ccc(N5CCCC5=O)c(Cl)c4)c3O)ccn2)CCN1 [Example 253, (R)-1-(3-chloro-2′-hydroxy-3′-(2-(3-methylpiperazin-1-yl)pyridin-4-yl)-[1,1′-biphenyl]-4-yl)pyrrolidin-2-one] |
| 0.01 to 0.1 µM | ≥ 3 µM | CC(=O)Nc1ccc(-c2cccc(-c3cccc(N4CCNC(=O)C4)c3)c2O)cc1F [Example 254, N-(3-fluoro-2′-hydroxy-3″-(3-oxopiperazin-1-yl)-[1,1′:3′,1″-terphenyl]-4-yl)acetamide] |
| 0.001 to 0.01 µM | 0.03 to 0.3 µM | CC(=O)Nc1ccc(-c2cccc(-c3ccnc(N4CCN[C@H](C)C4)c3)c2O)cc1F [Example 255, (R)-N-(3-fluoro-2′-hydroxy-3'-(2-(3-methylpiperazin-1-yl)pyridin-4-yl)-[1,1′-biphenyl]-4-yl)acetamide] |
| 0.001 to 0.01 µM | 0.3 to 3 µM | CC(=O)Nc1ccc(-c2cccc(-c3ccnc(N4CCN[C@H](C)C4)c3)c2O)cc1Cl [Example 256, (R)-N-(3-chloro-2′-hydroxy-3′-(2-(3-methylpiperazin-1-yl)pyridin-4-yl)-[1,1′-biphenyl]-4-yl)acetamide] |
| > 0.1 µM | ≥ 3 µM | O=C1CCC(=O)N1c1ccc(-c2cccc(-c3cncc(N4CCNCC4)c3)c2O)cc1F [Example 257, 1-(3-fluoro-2′-hydroxy-3′-(5-(piperazin-1-yl)pyridin-3-yl)-[1,1′-biphenyl]-4-yl)pyrrolidine-2,5-dione] |
| 0.001 to 0.01 µM | 0.03 to 0.3 µM | CC(=O)Nc1ccc(-c2cccc(-c3cncc(N4CCN[C@H](C)C4)c3)c2O)cc1F [Example 258] |
| 0.001 to 0.01 µM | 0.03 to 0.3 µM | CC(=O)Nc1ccc(-c2cccc(-c3cncc(N4CCN[C@H](C)C4)c3)c2O)cc1Cl [Example 259, (R)-N-(3-chloro-2′-hydroxy-3′-(5-(3-methylpiperazin-1-yl)pyridin-3-yl)-[1,1′-biphenyl]-4-yl)acetamide] |
| > 0.1 µM | ≥ 3 µM | COC(=O)c1cc(-c2cccc(-c3ccc(NC(C)=O)c(F)c3)c2O)cc(N2CCNCC2)n1 [Example 260, Methyl 4-(4′-acetamido-3′-fluoro-2-hydroxy-[1,1′-biphenyl]-3-yl)-6-(piperazin-1-yl)picolinate] |
| 0.001 to 0.01 µM | 0.03 to 0.3 µM | CC(=O)Nc1ccc(-c2cccc(-c3ccnc(N4CC[C@@H](N)C4)c3)c2O)cc1F [Example 261, (R)-N-(3′-(2-(3-aminopyrrolidin-1-yl)pyridin-4-yl)-3-fluoro-2′-hydroxy-[1,1′-biphenyl]-4-yl)acetamide] |
| 0.001 to 0.01 µM | 0.03 to 0.3 µM | O=C1CCCN1c1ccc(-c2cccc(-c3cncc(N4CCNCC4)c3)c2O)cc1Cl [Example 262, 1-(3-chloro-2′-hydroxy-3′-(5-(piperazin-l-yl)pyridin-3-yl)-[1,1′-biphenyl]-4-yl)pyrrolidin-2-one] |
| 0.01 to 0.1 µM | 0.3 to 3 µM | O=C1CCCCN1c1ccc(-c2cccc(-c3ccnc(N4CCNCC4)c3)c2O)cc1F [Example 263, 1-(3-fluoro-2′-hydroxy-3′-(2-(piperazin-1-yl)pyridin-4-yl)-[1,1′-biphenyl]-4-yl)piperidin-2-one] |
| 0.001 to 0.01 µM | 0.03 to 0.3 µM | C[C@@H]1CN(c2cncc(-c3cccc(-c4ccc(N5CCCC5=O)c(F)c4)c3O)c2)CCN1 [Example 264, (R)-1-(3-fluoro-2′-hydroxy-3′-(5-(3-methylpiperazin-1-yl)pyridin-3-yl)-[1,1′-biphenyl]-4-yl)pyrrolidin-2-one] |
| 0.001 to 0.01 µM | 0.03 to 0.3 µM | C[C@@H]1CN(c2cncc(-c3cccc(-c4ccc(N5CCCC5=O)c(Cl)c4)c3O)c2)CCN1 [Example 265, (R)-1-(3-chloro-2′-hydroxy-3′-(5-(3-methylpiperazin-1-yl)pyridin-3-yl)-[1,1'-biphenyl]-4-yl)pyrrolidin-2-one] |
| 0.001 to 0.01 µM | 0.3 to 3 µM | CC1CN(c2cc(-c3cccc(-c4ccc(N5CCCC5=O)c(F)c4)c3O)ccn2)CC(C)N1 (stereo not drawn) [Example 266, 1-(3′-(2-(3,5-dimethylpiperazin-1-yl)pyridin-4-yl)-3-fluoro-2′-hydroxy-[1,1′-biphenyl]-4-yl)pyrrolidin-2-one] |
| 0.001 to 0.01 µM | 0.03 to 0.3 µM | CC1CN(c2cc(-c3cccc(-c4ccc(N5CCCC5=O)c(Cl)c4)c3O)ccn2)CC(C)N1 (stereo not drawn) [Example 267, 1-(3-chloro-3′-(2-(3,5-dimethylpiperazin-1-yl)pyridin-4-yl)-2′-hydroxy-[1,1′-biphenyl]-4-yl)pyrrolidin-2-one] |
| 0.001 to 0.01 µM | 0.03 to 0.3 µM | CC(=O)Nc1ccc(-c2cc(Cl)cc(-c3ccnc(N4CCNCC4)c3)c2O)cc1F [Example 268, N-(5′-chloro-3-fluoro-2′-hydroxy-3′-(2-(piperazin-1-yl)pyridin-4-yl)-[1,1′-biphenyl]-4-yl)acetamide] |

From patent US20250179059A1 (The Regents of the University of California, priority 2021, published 2025)
